The test system of one assay is NCI-H1417 cells. The assay is described as follows: In vitro cell inhibition assay - H1417 cell proliferation (CellTiter-Glo). The assay is classed as cell-based. Particulars: Homo sapiens, NCI-H1417, H1417 small cell lung cancer cell proliferation. In a few lines: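 Cells exposed to 8 compound concentrations (5-fold dilutions) in BEGM with 10% FBS for 7 days at 37° C., 5% CO2. Viable cells measured by CellTiter-Glo luminescence; inhibition versus no-inhibitor and no-cell controls, IC50 fitted.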
(Cellular ATP, detected with luciferase, serves as a proxy for viable cell number.)

The target of a further assay is pan-HDAC. The assay is described as follows: In vitro enzyme inhibition assay - HDAC (HDAC-Glo I/II), pan-HDAC. The assay is classed as biochemical. A digest of the protocol: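 The compound, serially diluted 5-fold in DMSO across 8 concentrations starting from a 1 mM stock, was made up as 4× working solutions in HDAC buffer. It was then tested in the HDAC-Glo I/II system, and luminescence was recorded. IC50 values came from variable-slope four-parameter curves of inhibition rate.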

For the next assay, the target named is HDAC8 (Homo sapiens (Human), UniProt Q9BY41). The assay is described as follows: In vitro enzyme inhibition assay - HDAC (HDAC-Glo I/II), HDAC8. Format: biochemical. Particulars: read-out: HDAC IC50 (nM) HDAC 8. As to the method: 2. In Vitro Enzyme Inhibition Assay—HDAC
HDAC8, sequence (Q9BY41 whole entry, canonical isoform): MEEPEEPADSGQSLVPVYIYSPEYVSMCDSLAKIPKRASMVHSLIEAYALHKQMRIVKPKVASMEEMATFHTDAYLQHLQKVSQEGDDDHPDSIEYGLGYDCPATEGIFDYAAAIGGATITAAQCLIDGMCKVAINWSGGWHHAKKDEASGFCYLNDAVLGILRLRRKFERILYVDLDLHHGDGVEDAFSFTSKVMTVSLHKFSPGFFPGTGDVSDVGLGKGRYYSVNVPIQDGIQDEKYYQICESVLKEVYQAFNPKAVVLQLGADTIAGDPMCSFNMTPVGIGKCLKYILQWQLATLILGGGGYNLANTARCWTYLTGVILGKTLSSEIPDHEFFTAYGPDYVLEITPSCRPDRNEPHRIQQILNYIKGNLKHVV
The effect of the compound on the enzymatic activity of pan-HDAC and two isoforms (HDAC1 and HDAC8) was examined using the HDAC-Glo I/II Assay and Screening System assay to assess the level of inhibition of HDAC protease activity and selectivity in each isoform. The proteins and detection reagents were from the HDAC-Glo™ I/II Assay and Screening System (Promega). A 1 mM stock solution of the compound was prepared in DMSO and diluted in a 5-fold gradient to create a series of 8 concentrations, and a specific volume of the highest concentration was diluted 25 times with HDAC Buffer to obtain 4× working solution of the compound. […] The 384-well plate was then read on a multifunctional microplate reader, with the Luminescence channel selected to record Luminescence values (RLU). The inhibition rate was calculated using the following formula: […]
Note: ‘Negative’ refers to the group without the inhibitor; ‘Blank’ refers to the group without the enzyme.
The IC50 value was calculated by fitting the inhibition rate by GraphPad Prism software, employing log (inhibitor) vs. response-Variable Slope (four parameters) model.

The target in the next assay is LSD1 (Homo sapiens (Human), UniProt O60341). The assay is described as follows: In vitro enzyme inhibition assay - LSD1 (HTRF). Format: biochemical. A general note: In TR-FRET formats the signal depends on donor and acceptor labels being close together.
The next assay relates to NCI-H69 cells. Nature of the assay: In vitro cell inhibition assay - NCI-H69 cell proliferation (CellTiter-Glo). The assay is classed as cell-based. Particulars: Homo sapiens, NCI-H69, H69 small cell lung cancer cell proliferation. A digest of the protocol:
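Cells seeded at 1×10^3 per well and incubated overnight at 37° C., 5% CO2, then treated with 8-point 5-fold compound dilutions in RPMI-640 with 20% FBS for 7 days. Viable cells measured by CellTiter-Glo luminescence; IC50 fitted from inhibition relative to no-inhibitor and no-cell controls.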

Structures can show the parent of a compound that is named as a salt.

As to `COc1cc(N2CCC(N)CC2)nc(-c2ccc(C#N)c(F)c2)c1-c1ccc(OCCCCCCC(=O)NO)c(O)c1` [Example 27, 7-(4-(6-(4-aminopiperidin-1-yl)-2-(4-cyano-3-fluorophenyl)-4-methoxypyridin-3-yl)-2-hydroxyphenoxy)-N-hydroxyheptanamide hydrochloride], the 50% inhibitory concentration (IC50) (as a rule, the concentration at which inhibition is half-maximal) in the assay on NCI-H1417 cells was determined as 48.9 nM; against pan-HDAC, 134 nM; at HDAC8, 186 nM; against LSD1 it was 1.38 nM.
`N#Cc1ccc(-c2cc(C(=O)N3C4CCC3CC(N)C4)sc2-c2ccc(OCCCCCCC(=O)NO)c(O)c2)cc1F` (stereo not shown) [Example 32, 7-(4-(5-(3-amino-8-azabicyclo[3.2.1]octane-8-carbonyl)-3-(4-cyano-3-fluorophenyl)thiophen-2-yl)-2-hydroxyphenoxy)-N-hydroxyheptanamide hydrochloride]: the IC50 in the assay with NCI-H1417 cells came out at 54.7 nM; against pan-HDAC, 14 nM; at HDAC8 it was 279 nM; against LSD1, 0.35 nM.
Consider `COc1ccc(-c2cnc(N3CCC(N)(CCc4ccc(/C=C/C(=O)NO)cc4)CC3)c(C#N)c2-c2ccc(C#N)c(F)c2)cc1O` [Example 86, (E)-3-(4-(2-(4-amino-1-(3-cyano-4-(4-cyano-3-fluorophenyl)-5-(3-hydroxy-4-methoxyphenyl)pyridin-2-yl)piperidin-4-yl)ethyl)phenyl)-N-hydroxyacrylamide formate], for which the IC50 in the assay with NCI-H1417 cells worked out at 15.4 nM; at pan-HDAC, 13.8 nM; on HDAC8 it was 578 nM; with NCI-H69 cells, 145 nM; at LSD1, 9.46 nM.
For the compound `CN(C)c1ccc(-c2cnc(N3CCC(NCc4ccc(/C=C/C(=O)NO)cc4)CC3)c(C#N)c2-c2ccc(C#N)c(F)c2)cc1O` [Example 153, (E)-3-(4-(((1-(3-Cyano-4-(4-cyano-3-fluorophenyl)-5-(4-(dimethylamino)-3-hydroxyphenyl)pyridin-2-yl)piperidin-4-yl)amino)methyl)phenyl)-N-hydroxyacrylamide formate], the half-maximal inhibitory concentration (IC50) was 6.21 nM with NCI-H1417 cells; 5.49 nM against pan-HDAC; 400 nM at HDAC8; 65.5 nM in the assay with NCI-H69 cells; 0.74 nM against LSD1.
Take `COc1ccc(-c2cnc(N3CCC(NCC4CC=C(/C=C/C(=O)NO)CC4)CC3)c(C#N)c2-c2ccc(C#N)c(F)c2)cc1O` (stereo not shown) [Example 155, (E)-3-(4-(((1-(3-Cyano-4-(4-cyano-3-fluorophenyl)-5-(3-hydroxy-4-methoxyphenyl)pyridin-2-yl)piperidin-4-yl)amino)methyl)cyclohex-1-en-1-yl)-N-hydroxyacrylamide formate]: the concentration for half-maximal inhibition (IC50) in the assay on NCI-H1417 cells is 11.5 nM; against pan-HDAC, 20 nM; at HDAC8 it was 23.7 nM; with NCI-H69 cells, 314 nM; at LSD1, 0.58 nM.
As for `COc1cc(O)c(-c2cnc(N3CCC(NCc4ccc(/C=C/C(=O)NO)cc4)CC3)c(C#N)c2-c2ccc(C#N)c(F)c2)cc1O` [Example 158, (E)-3-(4-(((1-(3-Cyano-4-(4-cyano-3-fluorophenyl)-5-(2,5-dihydroxy-4-methoxyphenyl)pyridin-2-yl)piperidin-4-yl)amino)methyl)phenyl)-N-hydroxyacrylamide trifluoroacetate], the IC50 is 93.6 nM in the assay on NCI-H1417 cells; 0.61 nM at pan-HDAC; 87.8 nM on HDAC8; 250 nM in the assay on NCI-H69 cells; 0.73 nM on LSD1.
Consider `COc1ccc(-c2cnc(N3CCC(NCc4ccc(/C=C/C(=O)NO)nn4)CC3)c(C#N)c2-c2ccc(C#N)c(F)c2)cc1O` [Example 160, (E)-3-(6-(((1-(3-Cyano-4-(4-cyano-3-fluorophenyl)-5-(3-hydroxy-4-methoxyphenyl)pyridin-2-yl)piperidin-4-yl)amino)methyl)pyridazin-3-yl)-N-hydroxyacrylamide formate], for which the 50% inhibitory concentration (IC50) in the assay on NCI-H1417 cells was 5.59 nM; on pan-HDAC, 1.48 nM; on HDAC8, 184 nM; in the assay with NCI-H69 cells it was 80.6 nM; on LSD1 it was 1.12 nM.
The matching figures for `Cc1c(O)cc(-c2cnc(N3CCC(NCc4ccc(/C=C/C(=O)NO)cc4)CC3)c(C#N)c2-c2ccc(C#N)c(F)c2)cc1F` [Example 161, (E)-3-(4-(((1-(3-Cyano-4-(4-cyano-3-fluorophenyl)-5-(3-fluoro-5-hydroxy-4-methylphenyl)pyridin-2-yl)piperidin-4-yl)amino)methyl)phenyl)-N-hydroxyacrylamide formate]: 3.13 nM, 6.83 nM, 304 nM, 65 nM and 0.58 nM.
Turning to `COc1ccc(-c2cnc(N3CCC(NCCOc4ccc(C(=O)NO)cc4)CC3)c(C#N)c2-c2ccc(C#N)c(F)c2)cc1O` [Example 164, 4-(2-[(1-(3-Cyano-4-(4-cyano-3-fluorophenyl)-5-(3-hydroxy-4-methoxyphenyl)pyridin-2-yl)piperidin-4-yl)amino]ethoxy)-N-hydroxybenzamide formate], the IC50 came to 2.66 nM in the assay on NCI-H1417 cells; 38.1 nM at pan-HDAC; 332 nM at HDAC8; 432 nM with NCI-H69 cells; 0.44 nM on LSD1.
Turning to `COc1cc(OC)c(-c2cnc(N3CCC(NCc4ccc(/C=C/C(=O)NO)cc4)CC3)c(C#N)c2-c2ccc(C#N)c(F)c2)cc1O` [Example 165, (E)-3-(4-(((1-(3-Cyano-4-(4-cyano-3-fluorophenyl)-5-(5-hydroxy-2,4-dimethoxyphenyl)pyridin-2-yl)piperidin-4-yl)amino)methyl)phenyl-N-hydroxyacrylamide hydrochloride], the 50% inhibitory concentration (IC50) was found to be 11.4 nM in the assay on NCI-H1417 cells; 7.31 nM against pan-HDAC; 145 nM on HDAC8; 114 nM in the assay on NCI-H69 cells; 1.35 nM against LSD1.
For `COc1ccc(-c2cnc(N3CCC(NCc4ccc(/C=C/C(=O)NO)cc4)CC3)c(C#N)c2-c2ccc(C#N)c(O)c2)cc1O` [Example 166, (E)-3-(4-(((1-(3-Cyano-4-(4-cyano-3-hydroxyphenyl)-5-(3-hydroxy-4-methoxyphenyl)pyridin-2-yl)piperidin-4-yl)amino)methyl)phenyl-N-hydroxyacrylamide hydrochloride] the same measures were 61.6 nM, 2.27 nM, 64 nM, 208 nM and 15.1 nM.
As to `COc1c(O)cc(-c2cnc(N3CCC(NCc4ccc(/C=C/C(=O)NO)cc4)CC3)c(C#N)c2-c2ccc(C#N)c(F)c2)cc1F` [Example 168, (E)-3-(4-(((1-(3-Cyano-4-(4-cyano-3-fluorophenyl)-5-(3-fluoro-5-hydroxy-4-methoxyphenyl)pyridin-2-yl)piperidin-4-yl)amino)methyl)phenyl)-N-hydroxyacrylamide formate], the IC50 in the assay with NCI-H1417 cells was determined as 5.23 nM; at pan-HDAC, 7.35 nM; at HDAC8 it was 250 nM; with NCI-H69 cells, 65.6 nM; against LSD1 it was 1.34 nM.
Turning to `COc1ccc(-c2cnc(N3CCC(NCc4ccc5sc(C(=O)NO)cc5c4)CC3)c(C#N)c2-c2ccc(C#N)c(F)c2)cc1O` [Example 173, 5-(((1-(3-Cyano-4-(4-cyano-3-fluorophenyl)-5-(3-hydroxy-4-methoxyphenyl)pyridin-2-yl)piperidin-4-yl)amino)methyl)-N-hydroxybenzo[b] thiophene-2-carboxamide formate], the IC50 with NCI-H1417 cells worked out at 2.23 nM; at pan-HDAC it was 114 nM; at HDAC8, 252 nM; with NCI-H69 cells it was 613 nM; against LSD1, 0.82 nM.
For `COc1ccc(-c2cnc(N3CCC(NCc4ccc(/C=C/C(=O)NO)o4)CC3)c(C#N)c2-c2ccc(C#N)c(F)c2)cc1O` [Example 178, (E)-3-(5-(((1-(3-Cyano-4-(4-cyano-3-fluorophenyl)-5-(3-hydroxy-4-methoxyphenyl)pyridin-2-yl)piperidin-4-yl)amino)methyl)furan-2-yl)-N-hydroxyacrylamide formate] the same measures were 4.21 nM, 588 nM, 1710 nM, 906 nM and 0.65 nM.
Take `COc1ccc(-c2cnc(N3CCC(NCc4ccc(/C=C/C(=O)NO)c5[nH]ncc45)CC3)c(C#N)c2-c2ccc(C#N)c(F)c2)cc1O` [Example 180, (E)-3-(4-(((1-(3-Cyano-4-(4-cyano-3-fluorophenyl)-5-(3-hydroxy-4-methoxyphenyl)pyridin-2-yl)piperidin-4-yl)amino)methyl)-1H-indazol-7-yl)-N-hydroxyacrylamide formate]: the half-inhibitory concentration (IC50) in the assay with NCI-H1417 cells worked out at 3.63 nM; against pan-HDAC it was 23.4 nM; on HDAC8 it was 1240 nM; in the assay on NCI-H69 cells it was 5040 nM; against LSD1 it was 0.11 nM.
